Results: patent US9434756B2, “Crystalline 4′-epidaunorubicin hydrochloride and use thereof” (Heraeus Precious Metals GmbH & Co. KG, priority 2009, dated 2016)

Experiments:
[1] = Solubility of 4′-epidaunorubicin hydrochloride (stated in words, no method given); format: physicochemical
[2] = Thermal stability / decomposition of 4′-epidaunorubicin hydrochloride crystals (thermogravimetric analysis); format: physicochemical; conditions: for temperature at which the product decomposed: crystals obtained in the example
Text: FIG. 2 is a graph showing the thermogravimetric analysis (TGA) of 4′-epidaunorubicin hydrochloride. The data were obtained using the instrument NETZSCH TG 209 (sample mass: […], range: 24.0/10.0 (K/min)/250.0, crucible: Al2O3).

Structure (SMILES): COc1cccc2c1C(=O)c1c(O)c3c(c(O)c1C2=O)C[C@@](O)(C(C)=O)C[C@@H]3O[C@H]1C[C@H](N)[C@@H](O)[C@H](C)O1.Cl [4′-epidaunorubicin hydrochloride]
- solubility of amorphously precipitated material ([1]; amorphous precipitate, solvent not stated): only purely soluble
- solubility in methanol ([1]; methanol, crystalline form versus amorphous form, hydrochloride): improved solubility in methanol
- thermal stability ([2]; crystalline form): high thermal stability
- temperature at which the product decomposed ([2]; listed as Example 1, hydrochloride): 191 °C
- temperature at which the product decomposed ([2]; listed as Example 2, hydrochloride): 191 °C
- temperature at which the product decomposed ([2]; listed as Example 3, hydrochloride): 190 °C
- temperature at which the product decomposed ([2]; listed as Example 4, hydrochloride): 190 °C
